Measured values reported in PMC11561307, “Ultra-inert lanthanide chelates as mass tags for multiplexed bioanalysis” (Nature Communications, 2024).

Assay: Kinetic inertness: acid-assisted dechelation in excess HCl
Assay type: physicochemical
Settings: for half-life / half-life, h: Figure 2A; for t½ (6.0 M HCl, 80 °C) / t½ (0.1 M HCl, 25 °C) / t½ (0.1 M HCl, 80 °C) / t½ (1.0 M HCl, 80 °C): dechelation half-life, HPLC-UV after 1 h, 1 day, 1 week, 1 month, ± error of the fit; for t½ (6.0 M HCl, 80 °C): 0.5 mM chelate in 6.0 M HCl, fit y = exp(−x/t), t½ = ln(2) × t; for t½ (0.1 M HCl, 25 °C) / t½ (0.1 M HCl, 80 °C): 0.5 mM chelate in 0.1 M HCl; for t½ (0.1 M HCl, 25 °C) / t½ (0.1 M HCl, 80 °C) / t½ (1.0 M HCl, 80 °C): exponential decay fit; for abundance of intact chelate: section above Supp. Fig 16, head with acid, temperature and time not given; for t½ (1.0 M HCl, 80 °C): 0.5 mM chelate in 1.0 M HCl

SMILES	half-life (0.1 M HCl, 80 °C)	half-life (1.0 M HCl, 80 °C)	t½ (6.0 M HCl, 80 °C) (80 °C)	half-life, h (0.1 M HCl, 25 °C)	half-life, h (0.1 M HCl, 80 °C)	half-life (6.0 M HCl, 80 °C)	t½ (0.1 M HCl, 25 °C) (25 °C)	t½ (0.1 M HCl, 80 °C) (80 °C)	abundance of intact chelate	t½ (1.0 M HCl, 80 °C) (80 °C)	half-life, h (1.0 M HCl, 80 °C)	other results
O=C([O-])CN1CCN2CCN(CC(=O)[O-])CCN(CC1)Cc1cccc(n1)-c1cnnn1Cc1cc(-c3ccccc3)cc(n1)C2.[Er+3] [Ph{Er}]	–	2470 days	–	too stable	too stable	14.3 days	too stable	too stable	100.0%	–	–	–
O=C([O-])CN1CCN2CCN(CC(=O)[O-])CCN(CC1)Cc1cccc(n1)-c1cn(nn1)Cc1cc(-c3ccccc3)cc(n1)C2.[Gd+3] [1,4-cz-[Gd(PhL1)]]	–	–	too unstable	–	–	–	–	too unstable	97.8%	too unstable	–	–
O=C([O-])CN1CCN2CCN(CC(=O)[O-])CCN(CC1)Cc1cccc(n1)-c1cnnn1Cc1cc(-c3ccccc3)cc(n1)C2.[Nd+3] [Ph{Nd}]	0.106 days	–	too unstable	–	–	–	–	–	–	too unstable	too unstable	half-life (0.1 M HCl, 25 °C): 7.46 days; half-life, h (6.0 M HCl, 80 °C): too unstable
O=C([O-])CN1CCN2CCN(CC(=O)[O-])CCN(CC1)Cc1cccc(n1)-c1cnnn1Cc1cc(-c3ccccc3)cc(n1)C2.[Eu+3] [Ph{Eu}]	15.8 days	0.304 days	too unstable	too stable	–	–	too stable	–	–	–	–	half-life, h (6.0 M HCl, 80 °C): too unstable
O=C([O-])CN1CCN2CCN(CC(=O)[O-])CCN(CC1)Cc1cccc(n1)-c1cnnn1Cc1cc(-c3ccccc3)cc(n1)C2.[Yb+3] [Ph{Yb}]	–	–	–	too stable	too stable	195 days	too stable	too stable	100.0%	too stable	too stable	–
O=C([O-])CN1CCN2CCN(CC(=O)[O-])CCN(CC1)Cc1cccc(n1)-c1cnnn1Cc1cc(-c3ccccc3)cc(n1)C2.[Pr+3] [Ph{Pr}]	0.0195 days	–	too unstable	–	–	–	–	–	–	too unstable	too unstable	half-life (0.1 M HCl, 25 °C): 2.15 days; half-life, h (6.0 M HCl, 80 °C): too unstable
O=C([O-])CN1CCN2CCN(CC(=O)[O-])CCN(CC1)Cc1cccc(n1)-c1cnnn1Cc1cc(-c3ccccc3)cc(n1)C2.[Tm+3] [Ph{Tm}]	–	–	–	too stable	too stable	56.7 days	too stable	too stable	100.0%	too stable	too stable	–
O=C([O-])CN1CCN2CCN(CC(=O)[O-])CCN(CC1)Cc1cccc(n1)-c1cnnn1Cc1cc(-c3ccccc3)cc(n1)C2.[Tb+3] [Ph{Tb}]	1320 days	15.5 days	–	too stable	–	0.0875 days	too stable	–	–	–	–	–
O=C([O-])CN1CCN2CCN(CC(=O)[O-])CCN(CC1)Cc1cccc(n1)-c1cn(nn1)Cc1cc(-c3ccccc3)cc(n1)C2.[Lu+3] [1,4-cz-[Lu(PhL1)]]	–	–	too unstable	–	–	–	–	too unstable	98.7%	too unstable	–	–
O=C([O-])CN1CCN2CCN(CC(=O)[O-])CCN(CC1)Cc1cccc(n1)-c1cnnn1Cc1cc(-c3ccccc3)cc(n1)C2.[Lu+3] [Ph{Lu}]	–	–	–	too stable	too stable	1050 days	too stable	too stable	100.0%	too stable	too stable	estimated half-life (6.0 M HCl at 80 °C): ~3 years
O=C([O-])CN1CCN2CCN(CC(=O)[O-])CCN(CC1)Cc1cccc(n1)-c1cnnn1Cc1cc(-c3ccccc3)cc(n1)C2.[Ca+2] [Ph{Ca}]	–	–	too unstable	–	–	–	–	too unstable	38.9%	too unstable	–	–
O=C([O-])CN1CCN(CC(=O)[O-])CCN(CC(=O)[O-])C(Cc2ccc([N+](=O)[O-])cc2)CN(CC(=O)[O-])CC1.[Lu+3] (centres unmarked) [[Lu(NO2BnDOTA)], reference compound]	–	–	too unstable	–	–	–	–	–	–	–	–	intact chelate (ratio NO2BnDOTA/[Lu(NO2BnDOTA)]) (0.1 M HCl at 80 °C after 1 h, HPLC-UV, initial and repeated injection identical): 76%
O=C([O-])CN1CCN2CCN(CC(=O)[O-])CCN(CC1)Cc1cccc(n1)-c1cnnn1Cc1cc(-c3ccccc3)cc(n1)C2.[Y+3] [Ph{Y}]	–	–	–	–	–	–	too stable	–	100.0%	–	–	–

Continued, in another order:

half-life (0.1 M HCl, 80 °C)	half-life (1.0 M HCl, 80 °C)	t½ (6.0 M HCl, 80 °C) (80 °C)	half-life, h (0.1 M HCl, 25 °C)	half-life, h (0.1 M HCl, 80 °C)	half-life (6.0 M HCl, 80 °C)	t½ (0.1 M HCl, 25 °C) (25 °C)	t½ (0.1 M HCl, 80 °C) (80 °C)	abundance of intact chelate	t½ (1.0 M HCl, 80 °C) (80 °C)	half-life, h (1.0 M HCl, 80 °C)	SMILES	other results
4.62 days	0.0608 days	too unstable	–	–	–	–	–	–	–	–	O=C([O-])CN1CCN2CCN(CC(=O)[O-])CCN(CC1)Cc1cccc(n1)-c1cnnn1Cc1cc(-c3ccccc3)cc(n1)C2.[Sm+3] [Ph{Sm}]	half-life (0.1 M HCl, 25 °C): 558 days; half-life, h (6.0 M HCl, 80 °C): too unstable
–	550 days	–	too stable	too stable	2.84 days	too stable	too stable	100.0%	–	–	O=C([O-])CN1CCN2CCN(CC(=O)[O-])CCN(CC1)Cc1cccc(n1)-c1cnnn1Cc1cc(-c3ccccc3)cc(n1)C2.[Ho+3] [Ph{Ho}]	–
–	–	too unstable	–	too unstable	–	–	too unstable	–	too unstable	too unstable	O=C([O-])CN1CCN2CCN(CC(=O)[O-])CCN(CC1)Cc1cccc(n1)-c1cnnn1Cc1cc(-c3ccccc3)cc(n1)C2.[Ce+3] [Ph{Ce}]	half-life (0.1 M HCl, 25 °C): 0.688 days; half-life, h (6.0 M HCl, 80 °C): too unstable
–	–	too unstable	–	–	–	–	–	–	too unstable	–	O=C([O-])CN1CCN(CC(=O)[O-])CCN(CC(=O)[O-])C(Cc2ccc([N+](=O)[O-])cc2)CN(CC(=O)[O-])CC1.[La+3] (centres unmarked) [[La(NO2BnDOTA)], reference compound]	–
–	–	too unstable	–	–	–	–	–	–	–	–	O=C([O-])CN1CCN(CC(=O)[O-])CCN(CC(=O)[O-])C(Cc2ccc([N+](=O)[O-])cc2)CN(CC(=O)[O-])CC1.[Gd+3] (centres unmarked) [[Gd(NO2BnDOTA)], reference compound]	–
103 days	1.27 days	–	too stable	–	0.00708 days	too stable	–	–	–	–	O=C([O-])CN1CCN2CCN(CC(=O)[O-])CCN(CC1)Cc1cccc(n1)-c1cnnn1Cc1cc(-c3ccccc3)cc(n1)C2.[Gd+3] [Ph{Gd}]	–
3960 days	146 days	–	too stable	–	0.5 days	too stable	–	100.0%	–	–	O=C([O-])CN1CCN2CCN(CC(=O)[O-])CCN(CC1)Cc1cccc(n1)-c1cnnn1Cc1cc(-c3ccccc3)cc(n1)C2.[Dy+3] [Ph{Dy}]	–
